According to US20170000749A1, “Methods for Treating Cognitive Disorders Using Inhibitors of Histone Deacetylase” (Forum Pharmaceuticals, Inc., priority 2008, published 2017):
Where two headings read alike, the source gives them in different places.

How the values were obtained:
[1] = tested on: HDAC activity in primary mouse cortical cultures; assay: Whole-Cell Histone Deacetylase (HDAC) Inhibition Assay in Primary Mouse Cortical Cultures; format: cell-based
Method in brief: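 Primary neocortical neurons from E17 Balb/C mouse embryos were plated at 50000 cells/well and treated at DIV9 with ten-point DMSO dilutions for 16-18 h at 37° C, in triplicate. BOC-Lys(Ac)-AMC substrate was then added for 1 h. Fluor de Lys developer containing 1 uM TSA produced a fluorophore, which was read.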

[2] = molecular target: one or more of HDAC-1, HDAC-2, HDAC-3, HDAC-4, HDAC-5, HDAC-6, HDAC-7, HDAC-8, HDAC-9, HDAC-10 and HDAC-11; assay: Inhibition of Histone Deacetylase Enzymatic Activity (Boc-Lys(Ac)-AMC substrate, Fluor-de-Lys developer); format: biochemical; conditions: read-out: HDAC Inhibition (IC50 μM) HDAC Enzyme
Method: The following protocol is used to assay the compounds of the disclosure.
The mixture is pre-incubated for 5 minutes at room temperature. The reaction is started by bringing the temperature to 37° C. and adding 16 μl substrate. Total reaction volume is 50 μl.
In the Tables 8, 9 and 10, A≦0.05 μM; 0.05 μM<B≦0.1 μM; 0.1 μM<C≦1 μM; and 1 μM<D≦10 μM.

[3] = whole-cell (WC), mouse cortical neurons, Table 9, read-out: HDAC Inhibition (IC50 μM) WC mouse cortical neurons
[4] = whole-cell (WC), mouse cortical neurons, Table 8, read-out: HDAC Inhibition (IC50 μM) WC mouse cortical neurons
[5] = whole-cell (WC), mouse cortical neurons, Table 10, read-out: HDAC Inhibition (IC50 μM) WC mouse cortical neurons

Cc1ccc(N2CC3CC2CN3c2ccc(C(=O)NO)cn2)cc1 (stereo not drawn) [N-hydroxy-6-(5-p-tolyl-2,5-diazabicyclo[2.2.1]heptan-2-yl)nicotinamide]
IC50 [1, 3]: < 1 µM | IC50 ([2]; Table 9): < 0.05 µM

O=C(NO)c1cnc(N2C[C@@H]3C[C@H]2CN3c2cccc(C(F)(F)F)c2)s1 [N-hydroxy-2-((1S,4S)-5-(3-(trifluoromethyl)phenyl)-2,5-diazabicyclo[2.2.1]heptan-2-yl)thiazole-5-carboxamide]
IC50 [1, 3]: 1 to 5 µM | IC50 ([2]; Table 9): < 0.05 µM

Cc1ccc2c(c1)N=C(c1ccc(C(=O)NO)cc1)c1ccccc1O2 [(Z)—N-hydroxy-4-(8-methyldibenzo[b,f][1,4]oxazepin-11-yl)benzamide]
IC50 [1, 4]: 1 to 5 µM | IC50 ([2]; Table 8): 0.05 to 0.1 µM

O=C(NO)c1cnc(N2C[C@@H]3C[C@H]2CN3C(=O)C(c2ccccc2)c2ccccc2)nc1 [2-((1S,4S)-5-(2,2-diphenylacetyl)-2,5-diazabicyclo[2.2.1]heptan-2-yl)-N-hydroxypyrimidine-5-carboxamide]
IC50 [1, 3]: 1 to 5 µM | IC50 ([2]; Table 9): 0.05 to 0.1 µM

O=C(NO)c1cnc(N2C[C@@H]3C[C@H]2CN3c2cccc(C(F)(F)F)n2)nc1 [N-hydroxy-2-((1S,4S)-5-(6-(trifluoromethyl)pyridin-2-yl)-2,5-diazabicyclo[2.2.1]heptan-2-yl)pyrimidine-5-carboxamide]
IC50 [1, 3]: < 1 µM | IC50 ([2]; Table 9): < 0.05 µM

COc1cccc2c1C(c1ccc(C(=O)NO)cc1)=Nc1ccccc1O2 [(Z)—N-hydroxy-4-(1-methoxydibenzo[b,f][1,4]oxazepin-11-yl)benzamide]
IC50 [1, 4]: > 15 µM | IC50 ([2]; Table 8): 0.1 to 1 µM

O=C(NO)c1cnc(N2C[C@@H]3C[C@H]2CN3C(=O)c2ccccc2)nc1 [2-((1S,4S)-5-benzoyl-2,5-diazabicyclo[2.2.1]heptan-2-yl)-N-hydroxypyrimidine-5-carboxamide]
IC50 [1, 3]: < 1 µM | IC50 ([2]; Table 9): < 0.05 µM

O=C(CCCCCN1C(=O)CN=C(c2ccccc2)c2ccccc21)NO [(Z)-N-hydroxy-6-(2-oxo-5-phenyl-2,3-dihydro-1H-benzo[e][1,4]diazepin-1-yl)hexanamide]
IC50 ([1]; read-out: HDAC Inhibition (IC50 μM) WC mouse cortical neurons, Table 10): 1 to 5 µM | IC50 ([2]; Table 10): 0.1 to 1 µM

O=C(Cc1ccc(CN2C(=O)c3ccccc3Oc3ccccc32)cc1)NO [N-hydroxy-2-(4-((11-oxodibenzo[b,f][1,4]oxazepin-10(11H)-yl)methyl)phenyl)acetamide]
IC50 [1, 5]: 1 to 5 µM | IC50 ([2]; Table 10): 0.1 to 1 µM

O=C(NO)c1ccc(ON=C2c3ccccc3CCc3ccccc32)cc1
IC50 [1, 5]: 5 to 15 µM | IC50 ([2]; Table 10): 0.1 to 1 µM

N#Cc1cccc(N2C[C@@H]3C[C@H]2CN3c2ccc(C(=O)NO)cc2)c1 [4-((1S,4S)-5-(3-cyanophenyl)-2,5-diazabicyclo[2.2.1]heptan-2-yl)-N-hydroxybenzamide]
IC50 [1, 3]: 1 to 5 µM | IC50 ([2]; Table 9): 0.1 to 1 µM

O=C(NO)c1ccc(CON=C2c3ccccc3CCc3ccccc32)cc1
IC50 [1, 5]: 5 to 15 µM | IC50 ([2]; Table 10): 0.1 to 1 µM

O=C(NO)c1ccc(C2=Nc3ccccc3Oc3ncccc32)cc1 [(Z)-4-(benzo[b]pyrido[3,2-f][1,4]oxazepin-5-yl)-N-hydroxybenzamide]
IC50 [1, 4]: 1 to 5 µM | IC50 ([2]; Table 8): 0.05 to 0.1 µM

COc1cccc2c1Oc1ccc(C(F)(F)F)cc1N=C2c1ccc(C(=O)NO)cc1 [(Z)-N-hydroxy-4-(4-methoxy-8-(trifluoromethyl)dibenzo[b,f][1,4]oxazepin-11-yl)benzamide]
IC50 [1, 4]: 5 to 15 µM | IC50 ([2]; Table 8): 0.1 to 1 µM

O=C(NO)c1ccc(CCNC2=Nc3ccccc3Oc3ccccc32)cc1 [(E)-4-(2-(dibenzo[b,f][1,4]oxazepin-11-ylamino)ethyl)-N-hydroxybenzamide]
IC50 [1, 4]: 5 to 15 µM | IC50 ([2]; Table 8): 0.1 to 1 µM

O=C(NO)c1ccc(OCC(=O)N2Cc3ccccc3Oc3ccccc32)cc1
IC50 [1, 5]: 1 to 5 µM | IC50 ([2]; Table 10): 0.1 to 1 µM

O=C(NO)c1ccc(C2=Nc3ccccc3Oc3cc(N4CCOCC4)ccc32)cc1 [(Z)—N-hydroxy-4-(3-morpholinodibenzo[b,f][1,4]oxazepin-11-yl)benzamide]
IC50 [1, 4]: 5 to 15 µM | IC50 ([2]; Table 8): 0.1 to 1 µM

O=C(CCCCON=C1c2ccccc2CCc2ccccc21)NO
IC50 [1, 5]: 5 to 15 µM | IC50 ([2]; Table 10): 0.1 to 1 µM

O=C(NO)c1ccc(OCCN2C(=O)c3cccnc3Oc3ccccc32)cc1
IC50 [1, 5]: < 1 µM | IC50 ([2]; Table 10): < 0.05 µM

O=C(NO)c1ccc(CNC2=Nc3ccccc3N(C3CC3)c3ccccc32)cc1 [(E)-4-((5-cyclopropyl-5H-dibenzo[b,e][1,4]diazepin-11-ylamino)methyl)-N-hydroxybenzamide]
IC50 [1, 4]: 5 to 15 µM | IC50 ([2]; Table 8): 0.1 to 1 µM

O=C(NO)c1cnc(N2CCn3c(nnc3-c3ccccc3)C2)nc1 [N-hydroxy-2-(3-phenyl-5,6-dihydro-[1,2,4]triazolo[4,3-a]pyrazin-7(8H)-yl)pyrimidine-5-carboxamide]
IC50 [1, 5]: 1 to 5 µM | IC50 ([2]; Table 10): < 0.05 µM

O=C(NO)c1ccc(OCCN2C(=O)c3ccccc3Oc3ccccc32)c(F)c1
IC50 [1, 5]: < 1 µM | IC50 ([2]; Table 10): 0.05 to 0.1 µM

O=C(CCCCCCON=C1c2ccccc2CCc2ccccc21)NO
IC50 [1, 5]: 1 to 5 µM | IC50 ([2]; Table 10): 0.1 to 1 µM

O=C(NO)c1ccc(C2=Nc3ccc(C(F)(F)F)nc3Oc3ccccc32)cc1 [(Z)-N-hydroxy-4-(2-(trifluoromethyl)benzo[f]pyrido[2,3-b][1,4]oxazepin-6-yl)benzamide]
IC50 [1, 4]: 5 to 15 µM | IC50 ([2]; Table 8): 0.05 to 0.1 µM

O=C(NO)c1ccc(C2=Nc3cccnc3Oc3ccccc32)cc1 [(Z)-4-(benzo[f]pyrido[2,3-b][1,4]oxazepin-6-yl)-N-hydroxybenzamide]
IC50 [1, 4]: 1 to 5 µM | IC50 ([2]; Table 8): < 0.05 µM

O=C(CCCCCCN1C(=O)c2ccccc2Oc2ccccc21)NO [N-hydroxy-7-(11-oxodibenzo[b,f][1,4]oxazepin-10(11H)-yl)heptanamide]
IC50 [1, 5]: < 1 µM | IC50 ([2]; Table 10): < 0.05 µM

O=C(NO)c1cnc(NC(c2ccccc2)c2ccccc2)nc1 [2-(benzhydrylamino)-N-hydroxypyrimidine-5-carboxamide]
IC50 [1, 5]: < 1 µM | IC50 ([2]; Table 10): < 0.05 µM

Cc1cccc(N2C[C@H]3C[C@@H]2CN3c2ncc(C(=O)NO)cn2)c1 [N-hydroxy-2-((1R,4R)-5-m-tolyl-2,5-diazabicyclo[2.2.1]heptan-2-yl)pyrimidine-5-carboxamide]
IC50 [1, 3]: < 1 µM | IC50 ([2]; Table 9): 0.05 to 0.1 µM

CC(C)(C)OC(=O)N1C[C@@H]2C[C@H]1CN2c1ncc(C(=O)NO)cn1 [(1S,4S)-tert-butyl 5-(5-(hydroxycarbamoyl)pyrimidin-2-yl)-2,5-diazabicyclo[2.2.1]heptane-2-carboxylate]
IC50 [1, 3]: < 1 µM | IC50 ([2]; Table 9): < 0.05 µM

O=C(CCCCCCN1c2ccccc2C=Cc2ccccc21)NO [(Z)-7-(5H-dibenzo[b,f]azepin-5-yl)-N-hydroxyheptanamide]
IC50 [1, 5]: 1 to 5 µM | IC50 ([2]; Table 10): < 0.05 µM

O=C(NO)c1ccc(N2C[C@@H]3C[C@H]2CN3c2cc(C(F)(F)F)ccn2)cc1 [N-hydroxy-4-((1S,4S)-5-(4-(trifluoromethyl)pyridin-2-yl)-2,5-diazabicyclo[2.2.1]heptan-2-yl)benzamide]
IC50 [1, 3]: 1 to 5 µM | IC50 ([2]; Table 9): 0.1 to 1 µM

O=C(NO)c1ccc(C2Nc3ccccc3Oc3ccccc32)cc1 (stereo not drawn) [4-(10,11-dihydrodibenzo[b,f][1,4]oxazepin-11-yl)-N-hydroxybenzamide]
IC50 [1, 4]: 1 to 5 µM | IC50 ([2]; Table 8): < 0.05 µM

O=C(NO)c1ccc(-c2ccc3c(c2)C(N2CCOCC2)=Nc2ccccc2O3)cc1 [(E)-N-hydroxy-4-(11-morpholinodibenzo[b,f][1,4]oxazepin-2-yl)benzamide]
IC50 [1, 4]: > 15 µM | IC50 ([2]; Table 8): < 0.05 µM

O=C(CCc1ccc(CN2C(=O)c3ccccc3Oc3ccccc32)cc1)NO [N-hydroxy-3-(4-((11-oxodibenzo[b,f][1,4]oxazepin-10(11H)-yl)methyl)phenyl)propanamide]
IC50 [1, 5]: 1 to 5 µM | IC50 ([2]; Table 10): 0.1 to 1 µM

O=C(NO)c1ccc(C#CCN2C(=O)c3ccccc3Oc3ccccc32)cc1 [N-hydroxy-4-(3-(11-oxodibenzo[b,f][1,4]oxazepin-10(11H)-yl)prop-1-ynyl)benzamide]
IC50 [1, 5]: 1 to 5 µM | IC50 ([2]; Table 10): < 0.05 µM

O=C(/C=C/c1ccc(CN2C(=O)c3cccnc3N(C3CC3)c3ccccc32)cc1)NO [(E)-3-(4-((11-cyclopropyl-5-oxo-5H-benzo[b]pyrido[2,3-e][1,4]diazepin-6(11H)-yl)methyl)phenyl)-N-hydroxyacrylamide]
IC50 [1, 5]: < 1 µM | IC50 ([2]; Table 10): < 0.05 µM

CN(c1ncc(C(=O)NO)cn1)C1c2ccccc2CCc2ccccc21
IC50 [1, 5]: 1 to 5 µM | IC50 ([2]; Table 10): < 0.05 µM

O=C(NO)c1cnc(N2C[C@@H]3C[C@H]2CN3c2cccc(SC(F)(F)F)c2)nc1 [N-hydroxy-2-((1S,4S)-5-(3-(trifluoromethylthio)phenyl)-2,5-diazabicyclo[2.2.1]heptan-2-yl)pyrimidine-5-carboxamide]
IC50 [1, 3]: 1 to 5 µM | IC50 ([2]; Table 9): < 0.05 µM

O=C(NO)c1ccc(OCCN2C(=O)c3ccccc3Oc3cc(Cl)ccc32)cc1
IC50 [1, 5]: 1 to 5 µM | IC50 ([2]; Table 10): < 0.05 µM

Cc1ccc2c(c1)Oc1ccccc1N=C2c1ccc(C(=O)NO)cc1 [(Z)—N-hydroxy-4-(3-methyldibenzo[b,f][1,4]oxazepin-11-yl)benzamide]
IC50 [1, 4]: 1 to 5 µM | IC50 ([2]; Table 8): < 0.05 µM

O=C(NO)c1cnc(N2CCCN(c3ncc(C(F)(F)F)cc3Cl)CC2)nc1
IC50 [1, 5]: 5 to 15 µM | IC50 ([2]; Table 10): < 0.05 µM

O=C(NO)c1cnc(OC(c2ccc(F)cc2)c2ccc(F)cc2)nc1 [2-(bis(4-fluorophenyl)methoxy)-N-hydroxypyrimidine-5-carboxamide]
IC50 [1, 5]: > 15 µM | IC50 ([2]; Table 10): 0.1 to 1 µM
